Data reported in patent US12065404B2, “C4-carboxylic acid-substituted tryptamine derivatives and methods of using” (priority 2022, dated 2024).
Values joined by “and” are separate entries in the source; they are usually repeats but may differ in a detail not shown here. Equal values may be shown once. “Also recorded” adds a separate entry of the source.

Experiments:
[1] = biological target: T1, neuronal 5-HT2A receptor (5-HT2AR) (Mus musculus, UniProt P35363); test: Drug-induced Head Twitch Response (HTR) in mice; type: in vivo, C57BL/6-Elite mice; details: 1 mg/kg i.p., 15-to-30-minute window post-drug, relative to vehicle-treated control mice
T1 construct: HTR was measured in mice treated with a control and test compounds; tissue Charles River; host or cells: live C57BL/6-Elite mice (neuronal receptor)

[2] = Mouse pharmacokinetic (PK) study, parent compound and psilocin metabolite in plasma; type: in vivo, C57Bl/6 mice; details: for bioavailability: male, C57Bl/6, mouse, plasma, po
From the text: Briefly, the procedure was as follows. […] 19, 2022.

5-HT1A receptor = biological target: T2, 5-HT1A receptor (Homo sapiens, UniProt P08908); test: cAMP-Glo assay of 5-HT1A receptor modulation, +5-HT1A (CHO-K1/5-HT1A/Ga15) vs -5-HT1A (CHO-K1/Ga15) cells; type: cell-based; design: dose or concentration left out as unconfirmed; details: +5-HT1A vs -5-HT1A cell cultures stimulated with forskolin, increasing ligand concentrations
T2 construct: host or cells: CHO-K1 (co-expressing Ga15)
T2 sequence (P08908 1-422): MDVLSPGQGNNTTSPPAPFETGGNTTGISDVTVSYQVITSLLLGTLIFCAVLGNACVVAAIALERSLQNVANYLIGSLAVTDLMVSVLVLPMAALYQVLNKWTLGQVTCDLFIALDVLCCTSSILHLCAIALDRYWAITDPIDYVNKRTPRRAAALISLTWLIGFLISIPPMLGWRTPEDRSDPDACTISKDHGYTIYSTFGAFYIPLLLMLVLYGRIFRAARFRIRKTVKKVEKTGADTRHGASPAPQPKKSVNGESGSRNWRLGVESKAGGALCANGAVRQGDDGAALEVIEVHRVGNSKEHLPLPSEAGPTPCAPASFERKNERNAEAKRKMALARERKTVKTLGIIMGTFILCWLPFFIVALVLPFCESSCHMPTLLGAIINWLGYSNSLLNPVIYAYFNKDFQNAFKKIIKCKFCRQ

GABAA = GABAA (Homo sapiens, UniProt P14867+P18507+P47870); type: cell-based; details: ion channel
[3] = administered compound itself in plasma, 1 mg/kg i.v., individual animals, 1 mg/kg
[4] = administered compound itself in plasma, 1 mg/kg i.v., mean ± SD
[5] = administered compound itself in plasma, 1 mg/kg oral, individual animals, 1 mg/kg
[6] = administered compound itself in plasma, 1 mg/kg oral, mean ± SD
[7] = administered compound itself in plasma, 3 mg/kg oral, individual animals, 3 mg/kg
[8] = administered compound itself in plasma, 3 mg/kg oral, mean ± SD
[9] = plasma C(XX), 3 mg/kg p.o. C(XX), mean
[10] = plasma C(XX), 10 mg/kg oral C(XX), animals M58-M60, 10 mg/kg
[11] = plasma C(XX), 10 mg/kg oral C(XX), mean (n = 2)
[12] = plasma C(XX), 10 mg/kg oral C(XX), mean ± SD
[13] = plasma C(XX), 10 mg/kg oral C(XX), mean ± SD, 10 mg/kg

Sequence of GABAA (P14867 28-456): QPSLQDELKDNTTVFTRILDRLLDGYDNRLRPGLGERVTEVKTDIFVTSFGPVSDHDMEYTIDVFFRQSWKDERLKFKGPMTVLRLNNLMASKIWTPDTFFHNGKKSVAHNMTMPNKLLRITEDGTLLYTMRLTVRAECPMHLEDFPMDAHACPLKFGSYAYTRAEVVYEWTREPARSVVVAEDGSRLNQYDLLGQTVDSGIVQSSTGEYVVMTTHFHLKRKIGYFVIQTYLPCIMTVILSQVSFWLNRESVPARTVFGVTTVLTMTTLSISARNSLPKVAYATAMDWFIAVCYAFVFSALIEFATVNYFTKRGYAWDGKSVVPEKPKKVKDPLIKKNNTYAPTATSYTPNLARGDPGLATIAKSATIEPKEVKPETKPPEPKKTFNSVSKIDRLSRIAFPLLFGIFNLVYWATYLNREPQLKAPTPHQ
Sequence of GABAA (P47870 26-512): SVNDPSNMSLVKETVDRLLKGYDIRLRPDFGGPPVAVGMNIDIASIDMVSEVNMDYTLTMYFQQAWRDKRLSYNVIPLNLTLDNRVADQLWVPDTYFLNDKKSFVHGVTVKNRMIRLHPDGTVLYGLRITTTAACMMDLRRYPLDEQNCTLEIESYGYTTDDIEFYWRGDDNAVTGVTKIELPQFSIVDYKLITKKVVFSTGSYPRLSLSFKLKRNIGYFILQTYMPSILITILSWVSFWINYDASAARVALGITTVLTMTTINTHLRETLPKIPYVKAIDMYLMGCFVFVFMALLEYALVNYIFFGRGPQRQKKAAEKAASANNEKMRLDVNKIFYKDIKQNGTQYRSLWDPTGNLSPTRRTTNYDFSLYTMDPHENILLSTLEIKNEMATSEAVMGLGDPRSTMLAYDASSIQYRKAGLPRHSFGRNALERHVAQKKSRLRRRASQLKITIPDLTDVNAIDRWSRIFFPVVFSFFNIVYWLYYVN
Sequence of GABAA (P18507 40-475): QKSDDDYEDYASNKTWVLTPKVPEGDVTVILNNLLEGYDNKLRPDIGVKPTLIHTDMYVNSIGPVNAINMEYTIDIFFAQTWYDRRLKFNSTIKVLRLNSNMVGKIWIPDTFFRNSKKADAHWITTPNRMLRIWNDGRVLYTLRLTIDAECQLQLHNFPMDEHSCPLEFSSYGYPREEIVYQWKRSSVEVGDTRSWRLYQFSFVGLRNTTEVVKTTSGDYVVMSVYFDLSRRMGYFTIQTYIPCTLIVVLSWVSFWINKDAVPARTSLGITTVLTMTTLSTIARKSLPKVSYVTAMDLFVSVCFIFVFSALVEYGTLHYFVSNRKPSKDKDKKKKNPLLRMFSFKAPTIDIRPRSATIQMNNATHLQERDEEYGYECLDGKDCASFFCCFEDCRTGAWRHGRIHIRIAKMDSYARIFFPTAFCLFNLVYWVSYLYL
T1 sequence (P35363 whole entry): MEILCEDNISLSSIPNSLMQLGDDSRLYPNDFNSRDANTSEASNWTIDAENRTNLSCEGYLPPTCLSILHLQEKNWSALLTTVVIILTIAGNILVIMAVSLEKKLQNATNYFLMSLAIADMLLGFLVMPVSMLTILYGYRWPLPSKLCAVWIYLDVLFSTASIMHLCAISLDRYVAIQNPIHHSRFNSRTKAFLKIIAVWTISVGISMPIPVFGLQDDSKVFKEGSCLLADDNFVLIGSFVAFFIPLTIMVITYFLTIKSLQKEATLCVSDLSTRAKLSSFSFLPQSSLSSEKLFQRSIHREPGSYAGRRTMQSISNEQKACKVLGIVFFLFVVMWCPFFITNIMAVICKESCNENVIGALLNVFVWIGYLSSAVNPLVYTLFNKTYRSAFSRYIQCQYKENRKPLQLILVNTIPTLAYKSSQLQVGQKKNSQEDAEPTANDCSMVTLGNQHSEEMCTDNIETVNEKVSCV

## CN(C)CCc1c[nH]c2cccc(OC(=O)c3cccc4c3OCCO4)c12 [C(XX)]
[1]
  Incidences of Head Twitch Response (HTR): Elevated incidences of HTR
[2]; 1 mg/kg i.v. C(XX), 5 min, individual animals
  Plasma concentration of C(XX): 152 ng/mL and 105 ng/mL
[2]; 1 mg/kg i.v. C(XX), 0.25 h, individual animals
  Plasma concentration of C(XX): 84.7 ng/mL and 60.3 ng/mL
[2]; 1 mg/kg i.v. C(XX), 0.5 h, individual animals
  Plasma concentration of C(XX): 37.9 ng/mL and 32.1 ng/mL
[2]; 1 mg/kg i.v. C(XX), 1 h, individual animals
  Plasma concentration of C(XX): 8.13 ng/mL and 8.22 ng/mL
[2]; 1 mg/kg i.v. C(XX), 2 h, individual animals
  Plasma concentration of C(XX): 1.03 ng/mL and 1.14 ng/mL
[2]; 1 mg/kg i.v. C(XX), 4 h, individual animals
  Plasma concentration of C(XX): 0.137 ng/mL and 0.148 ng/mL
[2]; 1 mg/kg i.v. C(XX), 6 h, individual animals
  Plasma concentration of C(XX): BLQ (BLQ denotes below the lower limit of quantitation (0.25 ng/mL).)
[2]; 1 mg/kg i.v. C(XX), 8 h, animals M49-M51
  Plasma concentration of psilocin: BLQ (BLQ denotes below the lower limit of quantitation (0.5 ng/mL).)
[2]; 1 mg/kg i.v. C(XX), 8 h, individual animals
  Plasma concentration of C(XX): BLQ (BLQ denotes below the lower limit of quantitation (0.25 ng/mL).) and No (2×)
[2]; 1 mg/kg oral C(XX), 0.25 h, individual animals
  Plasma concentration of C(XX): 0.459 ng/mL and 0.648 ng/mL
[2]; 1 mg/kg oral C(XX), 0.5 h, individual animals
  Plasma concentration of C(XX): 0.509 ng/mL and 0.648 ng/mL
[2]; 1 mg/kg oral C(XX), 1 h, individual animals
  Plasma concentration of C(XX): 0.286 ng/mL and 0.199 ng/mL
[2]; 1 mg/kg oral C(XX), 2 h, individual animals
  Plasma concentration of C(XX): BLQ (BLQ denotes below the lower limit of quantitation (0.25 ng/mL).)
[2]; 1 mg/kg oral C(XX), 4 h, individual animals
  Plasma concentration of C(XX): BLQ (BLQ denotes below the lower limit of quantitation (0.25 ng/mL).)
[2]; 1 mg/kg oral C(XX), 6 h, individual animals
  Plasma concentration of C(XX): No Peak; also recorded: BLQ (BLQ denotes below the lower limit of quantitation (0.25 ng/mL).)
[2]; 1 mg/kg oral C(XX), 8 h, individual animals
  Plasma concentration of C(XX): No Peak; also recorded: BLQ (BLQ denotes below the lower limit of quantitation (0.25 ng/mL).)
[2]; 1 mg/kg oral C(XX), 24 h, animals M52-M54
  Plasma concentration of psilocin: BLQ (BLQ denotes below the lower limit of quantitation (0.5 ng/mL).)
[2]; 1 mg/kg oral C(XX), 24 h, individual animals
  Plasma concentration of C(XX): No Peak
[2]; 3 mg/kg oral C(XX), 0.25 h, individual animals
  Plasma concentration of C(XX): 1.72 ng/mL and 1.93 ng/mL
[2]; 3 mg/kg oral C(XX), 0.5 h, individual animals
  Plasma concentration of C(XX): 1.13 ng/mL and 1.43 ng/mL
[2]; 3 mg/kg oral C(XX), 1 h, individual animals
  Plasma concentration of C(XX): 0.752 ng/mL and 0.535 ng/mL
[2]; 3 mg/kg oral C(XX), 2 h, individual animals
  Plasma concentration of C(XX): 0.244 ng/mL and 0.156 ng/mL
[2]; 3 mg/kg oral C(XX), 4 h, individual animals
  Plasma concentration of C(XX): No Peak; also recorded: BLQ (BLQ denotes below the lower limit of quantitation (0.25 ng/mL).)
[2]; 3 mg/kg oral C(XX), 6 h, individual animals
  Plasma concentration of C(XX): No Peak; also recorded: BLQ (BLQ denotes below the lower limit of quantitation (0.25 ng/mL).)
[2]; 3 mg/kg oral C(XX), 8 h, individual animals
  Plasma concentration of C(XX): No Peak; also recorded: BLQ (BLQ denotes below the lower limit of quantitation (0.25 ng/mL).)
[2]; 3 mg/kg oral C(XX), 24 h, animals M55-M57
  Plasma concentration of psilocin: BLQ (BLQ denotes below the lower limit of quantitation (0.5 ng/mL).)
[2]; 3 mg/kg oral C(XX), 24 h, individual animals
  Plasma concentration of C(XX): No Peak
[2]; 3 mg/kg oral, no footnote on basis (Table 36B), individual animals
  F(%): 1.08% and 0.962%
[2]; 10 mg/kg oral C(XX), 0.25 h, individual animals
  Plasma concentration of C(XX): 2.99 ng/mL and 9.12 ng/mL and 10.3 ng/mL
[2]; 10 mg/kg oral C(XX), 0.5 h, individual animals
  Plasma concentration of C(XX): 2.79 ng/mL and 3.87 ng/mL and 5.79 ng/mL
[2]; 10 mg/kg oral C(XX), 1 h, individual animals
  Plasma concentration of C(XX): 1.69 ng/mL and 2.74 ng/mL
[2]; 10 mg/kg oral C(XX), 2 h, individual animals
  Plasma concentration of C(XX): 0.707 ng/mL and 0.533 ng/mL and 1.08 ng/mL
[2]; 10 mg/kg oral C(XX), 4 h, individual animals
  Plasma concentration of C(XX): BLQ (BLQ denotes below the lower limit of quantitation (0.25 ng/mL).) and 0.302 ng/mL
[2]; 10 mg/kg oral C(XX), 6 h, individual animals
  Plasma concentration of C(XX): 0.524 ng/mL and BLQ (BLQ denotes below the lower limit of quantitation (0.25 ng/mL).) and 0.196 ng/mL
[2]; 10 mg/kg oral C(XX), 8 h, individual animals
  Plasma concentration of C(XX): BLQ (BLQ denotes below the lower limit of quantitation (0.25 ng/mL).) and 0.185 ng/mL
[2]; 10 mg/kg oral C(XX), 24 h, animals M58-M60
  Plasma concentration of psilocin: BLQ (BLQ denotes below the lower limit of quantitation (0.5 ng/mL).)
[2]; 10 mg/kg oral C(XX), 24 h, individual animals
  Plasma concentration of C(XX): No Peak
[2]; [3]
  AUC0-inf: 62.5 ng·h/mL and 48.1 ng·h/mL
  AUC0-inf/Dose: 48.3 kg·ng·h/mL/mg and 62.5 kg·ng·h/mL/mg and 48.1 kg·ng·h/mL/mg
  AUC0-tlast: 62.4 ng·h/mL and 48.0 ng·h/mL
  AUC0-tlast/Dose: 48.1 kg·ng·h/mL/mg and 62.4 kg·ng·h/mL/mg and 48.0 kg·ng·h/mL/mg
  Apparent t1/2: 31.7 min and 32.2 min
  C0: 204 ng/mL and 139 ng/mL
  CL: 266.52 mL/min/kg and 346.28 mL/min/kg
  MRT0-inf: 22 min and 25.7 min
  Vss: 5.874 L/kg and 8.913 L/kg
[2]; [4]
  AUC0-inf/Dose: 53.0 ± 8.26 kg·ng·h/mL/mg
  AUC0-tlast/Dose: 52.8 ± 8.30 kg·ng·h/mL/mg
  MRT0-inf: 24.7 ± 2.27 min
[2]; [5]
  Cmax: 0.509 ng/mL and 0.648 ng/mL
  Cmax/Dose: 0.702 kg·ng/mL/mg and 0.509 kg·ng/mL/mg and 0.648 kg·ng/mL/mg
  tmax: 15 min
[2]; [6]
  Cmax: 0.620 ± 0.0996 ng/mL
  Cmax/Dose: 0.620 ± 0.0996 kg·ng/mL/mg
[2]; [7]
  AUC0-inf: 1.72 ng·h/mL and 1.53 ng·h/mL
  AUC0-inf/Dose: 0.433 kg·ng·h/mL/mg and 0.572 kg·ng·h/mL/mg and 0.510 kg·ng·h/mL/mg
  AUC0-tlast: 1.48 ng·h/mL and 1.42 ng·h/mL
  AUC0-tlast/Dose: 0.406 kg·ng·h/mL/mg and 0.494 kg·ng·h/mL/mg and 0.474 kg·ng·h/mL/mg
  Apparent t1/2: 40.1 min and 28.9 min
  Cmax: 1.72 ng/mL and 1.93 ng/mL
  Cmax/Dose: 0.497 kg·ng/mL/mg and 0.573 kg·ng/mL/mg and 0.643 kg·ng/mL/mg
  MRT0-inf: 64.8 min and 49.4 min
[2]; [8]
  AUC0-inf: 1.51 ± 0.210 ng·h/mL
  AUC0-inf/Dose: 0.505 ± 0.0700 kg·ng·h/mL/mg
  AUC0-tlast: 1.37 ± 0.137 ng·h/mL
  AUC0-tlast/Dose: 0.458 ± 0.0457 kg·ng·h/mL/mg
  Cmax: 1.71 ± 0.220 ng/mL
  Cmax/Dose: 0.571 ± 0.0734 kg·ng/mL/mg
[2]; 3 mg/kg, 3 mg/kg oral, no footnote on basis (Table 36B), individual animals
  bioavailability: 0.816%
[2]; 3 mg/kg, 3 mg/kg oral, no footnote on basis (Table 36B), mean ± SD
  bioavailability: 0.953 ± 0.132%
[2]; plasma C(XX), 1 mg/kg i.v. C(XX), mean
  AUC0-tlast/Dose: 52.8 kg·ng·h/mL/mg
[2]; plasma C(XX), 1 mg/kg p.o. C(XX), mean
  Cmax/Dose: 0.620 kg·ng/mL/mg
[2]; [9]
  AUC0-tlast/Dose: 0.458 kg·ng·h/mL/mg
  Cmax/Dose: 0.571 kg·ng/mL/mg
  F: 0.953%
[2]; plasma C(XX), 10 mg/kg oral C(XX), animals M58-M60
  tmax: 15 min
[2]; [10]
  AUC0-inf: 5.40 ng·h/mL and 10.7 ng·h/mL
  AUC0-tlast: 5.65 ng·h/mL and 4.99 ng·h/mL and 9.16 ng·h/mL
  AUC0-tlast/Dose: 0.565 kg·ng·h/mL/mg and 0.499 kg·ng·h/mL/mg and 0.916 kg·ng·h/mL/mg
[2]; plasma C(XX), 10 mg/kg oral C(XX), animals M58-M60, AUC0-tlast used, 10 mg/kg
  F: 1.07% and 0.941% and 1.73%
[2]; [11]
  AUC0-inf: 8.03 ng·h/mL
  Apparent t1/2: 186 min
  MRT0-inf: 131 min
[2]; [12]
  AUC0-tlast: 6.60 ± 2.24 ng·h/mL
  Cmax: 7.47 ± 3.92 ng/mL
  tmax: 15 ± 0 min
[2]; [13]
  AUC0-tlast/Dose: 0.660 ± 0.224 kg·ng·h/mL/mg and 0.660 kg·ng·h/mL/mg
  Cmax/Dose: 0.747 ± 0.392 kg·ng/mL/mg and 0.747 kg·ng/mL/mg
[2]; plasma C(XX), 10 mg/kg oral C(XX), mean ± SD, AUC0-tlast used, 10 mg/kg
  F: 1.24 ± 0.423% and 1.24%
5-HT1A receptor
  5-HT1A receptor modulation (reduction of cAMP levels): significant receptor modulation
GABAA; blocker (BL)
  IC50: > 100 µM
GABAA; opener (OP)
  EC50: > 100 µM
